The supplement of paper PMC10307832

Columns and labels:
Assay in all cases: relative viability (nuclei count vs DMSO), 5 days (fraction); higher = more cells survive
[1] = compound: CC1=C(CC(=O)O)c2cc(F)ccc2/C1=C\c1ccc([S+](C)[O-])cc1 [Sulindac]
Summary of the method: (§1)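 Vehicle-anchored 1536-well plates of lung cancer cell lines, held overnight at 37 °C, were pinned with five library-drug doses (not always all listed) spaced by √10. No medium change followed over the next 5 days, after which the cells were fixed, permeabilised and Hoechst-stained together and imaged at 4×. Nuclei were counted with MetaXpress, and viability is treated-well nuclei over vehicle-well nuclei, taken as a median across plates. Plates passed with control CV below 25% and at least one doubling.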

[2] = compound: CN[C@@H]1C[C@H]2O[C@@](C)([C@@H]1OC)n1c3ccccc3c3c4c(c5c6ccccc6n2c5c31)C(=O)NC4 [Staurosporine]
Summary of the method: as §1

[3] = compound: O=c1[nH]cc(F)c(=O)[nH]1 [5-Fluorouracil]
Summary of the method: as §1

[4] = compound: CN[C@@H]1C[C@H]2O[C@@](C)([C@@H]1OC)n1c3ccccc3c3c4c(c5c6ccccc6n2c5c31)C(=O)NC4 [Staurosporine] + Cc1nc(Nc2ncc(C(=O)Nc3c(C)cccc3Cl)s2)cc(N2CCN(CCO)CC2)n1 [Dasatinib] (partner 0.075 µM)
Summary of the method: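 Relative viability is defined as nuclei in treated wells over nuclei in vehicle wells. Duplicate plates were run and medians reported. Lung cancer cell lines in 1536-well plates were dosed by pin tool one day after seeding, with one drug or with a fixed anchor-drug dose plus five library-drug doses (not always all listed) in √10 steps, and nuclei were counted after 5 days.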

Row | Cell Line | relative viability ([1]; 0.08 µM) | relative viability ([1]; 0.253 µM) | relative viability ([1]; 0.8 µM) | relative viability ([1]; 2.53 µM) | relative viability ([1]; 8 µM) | relative viability ([2]; 0.005 µM) | relative viability ([2]; 0.01581 µM) | relative viability ([2]; 0.05 µM) | relative viability ([2]; 0.1581 µM) | relative viability ([2]; 0.5 µM) | relative viability ([3]; 0.02 µM) | relative viability ([3]; 0.2 µM) | relative viability ([3]; 0.6325 µM) | relative viability ([3]; 2 µM) | relative viability ([4]; first compound 0.005 µM) | relative viability ([4]; first compound 0.05 µM) | relative viability ([4]; first compound 0.1581 µM) | relative viability ([4]; first compound 0.5 µM) | relative viability ([4]; first compound 0.01581 µM)
1 | 201T | 1.02 | 1 | 1 | 0.977 | 1.09 | 0.968 | 0.564 | 0.854 | 0.563 | 0.279 | 0.997 | 0.774 | 0.345 | 0.335 | 0.55 | 0.544 | 0.402 | 0.279 | –
2 | A549 | 1.13 | 1.04 | 0.754 | 1.05 | 1.17 | 0.716 | 0.377 | 0.256 | 0.0723 | 0.0395 | 1.08 | 0.854 | 0.338 | 0.136 | – | – | – | – | –
3 | A-427 | 1.16 | 1.01 | 0.894 | 1 | 1.15 | 0.799 | 0.236 | 0.337 | 0.146 | 0.139 | 0.939 | 1.03 | 0.9 | 0.575 | 0.5 | 0.183 | 0.0891 | 0.128 | 0.206
4 | ABC-1 | 1.07 | 0.871 | 0.981 | 0.838 | 1.3 | 0.42 | 0.283 | 0.262 | 0.172 | 0.129 | 1.04 | 1.03 | 0.847 | 0.788 | 0.341 | 0.167 | 0.109 | 0.139 | 0.193
5 | BEN | 1.13 | 0.963 | 0.853 | 0.967 | 1.16 | 1.12 | 0.905 | 0.516 | 0.396 | 0.237 | 0.912 | 0.865 | 0.68 | 0.675 | 0.288 | 0.356 | 0.236 | 0.167 | 0.288
6 | CAL-12T | 1.05 | 1.09 | 0.864 | 0.946 | 1.12 | 0.34 | 0.223 | – | 0.15 | 0.144 | 1.08 | 1.03 | 0.659 | 0.448 | 0.14 | 0.0772 | 0.107 | 0.0737 | 0.0881
7 | COR-L23 | 1.41 | 1.08 | 0.7 | 1.01 | 1.22 | 0.765 | 0.443 | 0.289 | 0.123 | 0.0808 | 1 | 0.995 | 0.476 | 0.278 | 0.309 | 0.17 | 0.112 | 0.0512 | 0.186
8 | COR-L 105 | 1.03 | 0.894 | 0.891 | 0.91 | 1.25 | 0.636 | 0.295 | 0.357 | 0.274 | 0.193 | 0.896 | 0.927 | 0.819 | 0.5 | 0.281 | 0.158 | 0.155 | 0.157 | –
9 | Calu-6 | 1.11 | 1.03 | 0.835 | 1.04 | 1.22 | 0.912 | 0.553 | 0.41 | 0.126 | 0.0704 | 1.07 | 1.04 | 0.872 | 0.508 | – | – | – | – | –
